In this test the target is T1, RORc (Homo sapiens, UniProt P51449).
T1 sequence (P51449 269-508 limits assumed): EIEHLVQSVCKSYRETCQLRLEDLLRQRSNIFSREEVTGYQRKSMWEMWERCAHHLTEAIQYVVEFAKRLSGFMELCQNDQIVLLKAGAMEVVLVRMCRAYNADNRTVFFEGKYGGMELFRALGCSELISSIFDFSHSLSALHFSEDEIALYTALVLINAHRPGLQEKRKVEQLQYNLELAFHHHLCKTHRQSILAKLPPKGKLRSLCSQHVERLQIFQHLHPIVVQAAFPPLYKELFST
In words: In vitro RORc ligand binding assay (25-[3H]hydroxycholesterol displacement). The settings on record: IC50, IC50 values for RORc; unit inferred.
As usually defined, the IC50 is the point on the concentration scale where inhibition reaches its midpoint. The compound `C[C@H]1CC[C@H](c2ccccc2)S(=O)(=O)N1Cc1cc(F)c(C2(CO)CCOCC2)cc1F` [Compound 101, [4-[2,5-difluoro-4-[[(3S,6R)-3-methyl-1,1-dioxo-6-phenyl-thiazinan-2-yl]methyl]phenyl]tetrahydropyran-4-yl]methanol] registered a concentration for half-maximal inhibition (IC50) of 9 nM.
To `COC(=O)C1(c2ccc(CN3C(C)CCC(c4ccccc4)S3(=O)=O)c(F)c2)CCC(n2cnnc2)CC1` (centres unmarked) [Compound 46, methyl 1-(3-fluoro-4-((3-methyl-1,1-dioxido-6-phenyl-1,2-thiazinan-2-yl)methyl)phenyl)-4-(4H-1,2,4-triazol-4-yl)cyclohexanecarboxylate] belongs 54 nM.
The result for `C[C@H]1CC[C@H](c2ccccc2)S(=O)(=O)N1Cc1ccc(C2(OCC(N)=O)CCOCC2)cc1F` [Compound 113, 2-[4-[3-fluoro-4-[[(3S,6R)-3-methyl-1,1-dioxo-6-phenyl-thiazinan-2-yl]methyl]phenyl]tetrahydropyran-4-yl]oxyacetamide] reads 5 nM.
The result for `CC(=O)N1CCC(OCC(O)CO)(c2cc(F)c(CN3[C@@H](C)CC[C@H](c4ccccc4)S3(=O)=O)cc2F)CC1` (stereo in doubt) [Compound 168, 1-[4-[2,5-difluoro-4-[[(3S,6R)-3-methyl-1,1-dioxo-6-phenyl-thiazinan-2-yl]methyl]phenyl]-4-[(2S)-2,3-dihydroxypropoxy]-1-piperidyl]ethanone] reads 35.5 nM; that for `C[C@H]1CC[C@H](c2ccccc2)S(=O)(=O)N1Cc1cc(F)c(C2(CCC(=O)N(C)C)CC2)cc1F` [Compound 147, 3-[1-[2,5-difluoro-4-[[(3S,6R)-3-methyl-1,1-dioxo-6-phenyl-thiazinan-2-yl]methyl]phenyl]cyclopropyl]-N,N-dimethyl-propanamide], 32.5 nM.
Compound `C[C@H]1CC[C@H](c2ccccc2)S(=O)(=O)N1Cc1cc(F)c(C2(OCC(N)=O)COC2)cc1F` [Compound 138, 2-[3-[2,5-difluoro-4-[[(3S,6R)-3-methyl-1,1-dioxo-6-phenyl-thiazinan-2-yl]methyl]phenyl]oxetan-3-yl]oxyacetamide] returned a concentration for half-maximal inhibition (IC50) of 2.6 nM.
`C[C@H]1CC[C@H](c2ccccc2)S(=O)(=O)N1Cc1cc(F)c(C2(NCC(N)=O)COC2)cc1F` [Compound 195, 2-[[3-[2,5-difluoro-4-[[(3S,6R)-3-methyl-1,1-dioxo-6-phenyl-thiazinan-yl]methyl]phenyl]oxetan-3-yl]amino]acetamide] gave an IC50 of 35 nM.
Compound `C[C@H]1CC[C@H](c2ccccc2)S(=O)(=O)N1Cc1ccc(C2(OCC(N)=O)COC2)cc1F` [Compound 186, 2-[3-[3-fluoro-4-[[(3S,6R)-3-methyl-1,1-dioxo-6-phenyl-thiazinan-2-yl]methyl]phenyl]oxetan-3-yl]oxyacetamide] displayed an IC50 of 8 nM.
To `C[C@H]1CC[C@H](c2ccccc2)S(=O)(=O)N1Cc1ccc(C2(CCC(N)=O)CCOCC2)cc1F` [Compound 87, 3-[4-[3-fluoro-4-[[(3S,6R)-3-methyl-1,1-dioxo-6-phenyl-thiazinan-2-yl]methyl]phenyl]tetrahydropyran-4-yl]propanamide] belongs 8.8 nM; to `C[C@H]1CC[C@H](c2ccccc2)S(=O)(=O)N1Cc1ccc([C@]2(C(N)=O)C[C@@H](O)C2)cc1F` [Compound 183, 1-[3-fluoro-4-[[(3S,6R)-3-methyl-1,1-dioxo-6-phenyl-thiazinan-2-yl]methyl]phenyl]-3-hydroxy-cyclobutanecarboxamide], 55.2 nM.
To `C[C@H]1CC[C@H](c2ccccc2)S(=O)(=O)N1Cc1cc(F)c(C2(COCC(N)=O)CC2)cc1F` [Compound 127, 2-[[1-[2,5-difluoro-4-[[(3S,6R)-3-methyl-1,1-dioxo-6-phenyl-thiazinan-2-yl]methyl]phenyl]cyclopropyl]methoxy]acetamide] belongs 20 nM; to `C[C@H]1CC[C@H](c2ccccc2)S(=O)(=O)N1Cc1ccc(C2([C@@H](O)CCO)CCOCC2)cc1F` [Compound 117, (1S)-1-[4-[3-fluoro-4-[[(3S,6R)-3-methyl-1,1-dioxo-6-phenyl-thiazinan-2-yl]methyl]phenyl]tetrahydropyran-4-yl]propane-1,3-diol], 35.2 nM; to `C[C@H]1CC[C@H](c2ccccc2)S(=O)(=O)N1Cc1cc(F)c(C2(C(N)=O)CCOCC2)cc1F` [Compound 102, 4-[2,5-difluoro-4-[[(3S,6R)-3-methyl-1,1-dioxo-6-phenyl-thiazinan-2-yl]methyl]phenyl]tetrahydropyran-4-carboxamide], 37.8 nM.
The result for `C[C@H]1CC[C@H](c2ccccc2)S(=O)(=O)N1Cc1ccc(C2(OC[C@@H](O)CO)CCOCC2)cc1F` [Compound 119, (2S)-3-[4-[3-fluoro-4-[[(3S,6R)-3-methyl-1,1-dioxo-6-phenyl-thiazinan-2-yl]methyl]phenyl]tetrahydropyran-4-yl]oxypropane-1,2-diol] reads 27.4 nM.
Compound `C[C@H]1CC[C@H](c2ccccc2)S(=O)(=O)N1Cc1ccc(C2(C(=O)NCCC#N)CCOCC2)cc1F` [Compound 65, N-(2-cyanoethyl)-4-[3-fluoro-4-[[(3S,6R)-3-methyl-1,1-dioxo-6-phenyl-thiazinan-2-yl]methyl]phenyl]tetrahydropyran-4-carboxamide] yielded an IC50 of 52.9 nM.
The result for `C[C@H]1CC[C@H](c2ccccc2)S(=O)(=O)N1Cc1ccc(C2(C(N)=O)CC(F)(F)C2)cc1F` [Compound 167, 3,3-difluoro-1-[3-fluoro-4-[[(3S,6R)-3-methyl-1,1-dioxo-6-phenyl-thiazinan-2-yl]methyl]phenyl]cyclobutanecarboxamide] reads 11.1 nM; that for `C[C@H]1CC[C@H](c2ccccc2)S(=O)(=O)N1Cc1ccc(C2([C@H](O)CCO)CCOCC2)cc1F` [Compound 118, (1R)-1-[4-[3-fluoro-4-[[(3S,6R)-3-methyl-1,1-dioxo-6-phenyl-thiazinan-2-yl]methyl]phenyl]tetrahydropyran-4-yl]propane-1,3-diol], 16.6 nM; that for `C[C@@H](NC1(c2ccc(CN3[C@@H](C)CC[C@H](c4ccccc4)S3(=O)=O)c(F)c2)CCOCC1)C(N)=O` [Compound 180, (2R)-2-[[4-[3-fluoro-4-[[(3S,6R)-3-methyl-1,1-dioxo-6-phenyl-thiazinan-2-yl]methyl]phenyl]tetrahydropyran-4-yl]amino]propanamide], 6.7 nM.
To `C[C@H]1CC[C@H](c2ccccc2)S(=O)(=O)N1Cc1ccc(C2(CCC(=O)O)CCOCC2)cc1F` [Compound 84, 3-[4-[3-fluoro-4-[[(3S,6R)-3-methyl-1,1-dioxo-6-phenyl-thiazinan-2-yl]methyl]phenyl]tetrahydropyran-4-yl]propanoic acid] belongs 49.2 nM.
To `COC(=O)C1(c2ccc(CN3[C@@H](C)CC[C@H](c4ccccc4)S3(=O)=O)cc2)CCOCC1` [Compound 27, 4-[4-((3S,6R)-3-Methyl-1,1-dioxo-6-phenyl-[1,2]thiazinan-2-ylmethyl)-phenyl]-tetrahydro-pyran-4-carboxylic acid methyl ester] belongs 500 nM; to `C[C@H]1CC[C@H](c2ccccc2)S(=O)(=O)N1Cc1cc(F)c(C2(CO)CCC(n3cnnc3)CC2)cc1F` (stereo partly drawn) [Compound 134, [1-[2,5-difluoro-4-[[(3S,6R)-3-methyl-1,1-dioxo-6-phenyl-thiazinan-2-yl]methyl]phenyl]-4-(1,2,4-triazol-4-yl)cyclohexyl]methanol], 87.9 nM; to `C[C@H]1CC[C@H](c2ccccc2)S(=O)(=O)N1Cc1ccc(C2(NC[C@H](O)CO)CCOCC2)cc1F` [Compound 107, (2S)-3-[[4-[3-fluoro-4-[[(3S,6R)-3-methyl-1,1-dioxo-6-phenyl-thiazinan-2-yl]methyl]phenyl]tetrahydropyran-4-yl]amino]propane-1,2-diol], 22.6 nM.
`C[C@H]1CC[C@@H](c2ccccc2)S(=O)(=O)N1Cc1cc(F)c(C2(CO)CCC(O)CC2)cc1F` (some centres unmarked) [Compound 131] came in with an IC50 of 72.8 nM.
To `C[C@H]1CC[C@H](c2ccccc2)S(=O)(=O)N1Cc1ccc(C2(NCC(=O)O)CCOCC2)cc1F` [Compound 164, 2-[[4-[3-fluoro-4-[[(3S,6R)-3-methyl-1,1-dioxo-6-phenyl-thiazinan-2-yl]methyl]phenyl]tetrahydropyran-4-yl]amino]acetic acid] belongs 112 nM.
Consider `COC(CNC1(c2cc(F)c(CN3[C@@H](C)CC[C@H](c4ccccc4)S3(=O)=O)cc2F)CCOCC1)OC` [Compound 189, 4-[2,5-difluoro-4-[[(3S,6R)-3-methyl-1,1-dioxo-6-phenyl-thiazinan-2-yl]methyl]phenyl]-N-(2,2-dimethoxyethyl)tetrahydropyran-4-amine], for which the half-maximal inhibitory concentration (IC50) was 71 nM.
The result for `C[C@H]1CC[C@H](c2ccccc2)S(=O)(=O)N1Cc1ccc(C2(CO)CCOCC2)cc1` [Compound 32, {4-[4-((3S,6R)-3-Methyl-1,1-dioxo-6-phenyl-[1,2]thiazinan-2-ylmethyl)-phenyl]-tetrahydro-pyran-4-yl}-methanol] reads 310 nM; that for `C[C@H]1CC[C@H](c2ccccc2)S(=O)(=O)N1Cc1ccc(C2(COCCO)CCOCC2)cc1F` [Compound 83, 2-[[4-[3-fluoro-4-[[(3S,6R)-3-methyl-1,1-dioxo-6-phenyl-thiazinan-2-yl]methyl]phenyl]tetrahydropyran-4-yl]methoxy]ethanol], 46 nM; that for `C[C@H]1CC[C@H](c2ccccc2)S(=O)(=O)N1Cc1ccc(C2(C(C)(C)O)CCOCC2)cc1F` [Compound 76, 2-[4-[3-fluoro-4-[[(3S,6R)-3-methyl-1,1-dioxo-6-phenyl-thiazinan-2-yl]methyl]phenyl]tetrahydropyran-4-yl]propan-2-ol], 32.1 nM.
The result for `CC(=O)N1CCC(O)(c2ccc(CN3[C@@H](C)CCC(c4ccccc4)S3(=O)=O)cc2)CC1` (stereo partly drawn) [Compound 49, 1-{4-Hydroxy-4-[4-((S)-3-methyl-1,1-dioxo-6-phenyl-[1,2]thiazinan-2-ylmethyl)-phenyl]-piperidin-1-yl}-ethanone] reads 120 nM.

Values taken from patent publication US10131644B2, “Aryl sultam derivatives as RORc modulators” (Genentech, Inc., priority 2014, dated 2018).
